According to ChEMBL document CHEMBL3228042, “Stereochemical aspects of the metabolism of 5-(4'-fluorophenyl)-5-phenylhydantoin in the rat” (J Med Chem, 1979):

Columns and labels:
Assay type in all cases: ADME, organism-based
Details in all cases: in vivo
[1] = Drug metabolism in ip dosed Wistar rat assessed as (R)-(-)-5-(4'-fluorphenyl)-5-(4'-hydroxyphenyl)hydantoin level in urine up to 96 hrs by TLC analysis
[2] = Drug metabolism in ip dosed Wistar rat assessed as […] level in urine up to 96 hrs by GC-MS analysis
[3] = Drug metabolism in ip dosed Wistar rat assessed as 3'-O-methyl derivative level in urine up to 96 hrs by GC-MS analysis
[4] = Drug metabolism in ip dosed Wistar rat assessed as (R,S)-5-(3',4'-dimethoxyphenyl)-5-(4'-fluorophenyl)hydantoin level in urine up to 96 hrs by GC-MS analysis
[5] = Drug metabolism in ip dosed Wistar rat assessed as 5-(4'-fluorophenyl)-5-(4'-hydroxyphenyl)hydantoin level in urine up to 96 hrs by GC-MS analysis
[6] = Drug metabolism in ip dosed Wistar rat assessed as 5-(3',4'-dihydroxyphenyl)-5-(4'-fluorophenyl)hydantoin level in urine up to 96 hrs by GC-MS analysis

Measured: Drug metabolism

O=C1NC(=O)C(c2ccc(O)cc2)(c2ccc(F)cc2)N1 (racemic)
metabolite_detected: [1]

O=C1NC(=O)C(c2ccccc2)(c2ccc(F)cc2)N1 (stereo unspecified)
metabolite_detected: [2] | [3] | [4] | [5] | [6]

O=C1[N-]C(=O)C(c2ccccc2)(c2ccc(F)cc2)N1.[Na+] (racemic)
metabolite_detected: [2] | [3] | [4] | [5] | [6]
